Experiments:
Assay in all cases: KINOMEscan (ScanMAX) kinase profiling
Format in all cases: binding
panel of 468 kinases [1] = target: T1, panel of 468 kinases (Homo sapiens, UniProt P09619); conditions: PDGFRB; 1 μM; read-out: % control
T1 construct: purchased KINOMEscan (ScanMAX) service
Protocol: (§1) The kinase selectivity of inventive compounds 12, 75, and 77 was evaluated by KINOMEscan®. KINOMEscan® (ScanMAX™) analysis was performed against a near comprehensive panel of 468 kinases. The control percentage (% control) for inventive compounds at 1 μM in DMSO was determined by Equation 1: % control=(inventive compound−positive control)/(negative control−positive control)×100%, Equation 1
(§2) wherein the positive control is a compound with a % control value of 0% relative light units (RLU), and the negative control (i.e., DMSO) has % control value of 100% RLU. The enzyme selectivity in the present invention is defined as follows: inventive compounds are considered active for an enzyme when the observed % control is less than 35% (<35%).

panel of 468 kinases [2] = target: T2, panel of 468 kinases (Homo sapiens, UniProt P51813); conditions: BMX; 1 μM; read-out: % control
T2 construct: purchased KINOMEscan (ScanMAX) service
T2 sequence (P51813 1-675): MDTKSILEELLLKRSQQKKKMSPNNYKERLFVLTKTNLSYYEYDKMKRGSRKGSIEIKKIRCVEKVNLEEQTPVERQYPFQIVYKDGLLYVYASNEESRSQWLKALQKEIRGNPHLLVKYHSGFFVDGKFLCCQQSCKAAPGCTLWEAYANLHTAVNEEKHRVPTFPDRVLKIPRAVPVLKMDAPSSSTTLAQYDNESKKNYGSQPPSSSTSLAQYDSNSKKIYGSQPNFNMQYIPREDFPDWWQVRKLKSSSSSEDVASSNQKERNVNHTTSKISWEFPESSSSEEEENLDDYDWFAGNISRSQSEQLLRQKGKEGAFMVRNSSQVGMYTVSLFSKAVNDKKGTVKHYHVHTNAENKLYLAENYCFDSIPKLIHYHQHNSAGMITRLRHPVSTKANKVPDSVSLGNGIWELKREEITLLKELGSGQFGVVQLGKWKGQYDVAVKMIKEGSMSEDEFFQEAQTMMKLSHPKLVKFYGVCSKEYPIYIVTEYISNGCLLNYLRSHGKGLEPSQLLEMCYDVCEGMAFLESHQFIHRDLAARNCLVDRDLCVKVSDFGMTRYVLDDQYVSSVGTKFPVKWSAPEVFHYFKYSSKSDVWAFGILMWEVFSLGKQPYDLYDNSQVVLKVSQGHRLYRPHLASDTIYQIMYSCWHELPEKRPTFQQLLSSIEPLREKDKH
Protocol: as §1, §2

panel of 468 kinases [3] = target: T3, panel of 468 kinases (Homo sapiens, UniProt P51955); conditions: NEK2; 1 μM; read-out: % control
T3 construct: purchased KINOMEscan (ScanMAX) service
T3 sequence (P51955 1-445): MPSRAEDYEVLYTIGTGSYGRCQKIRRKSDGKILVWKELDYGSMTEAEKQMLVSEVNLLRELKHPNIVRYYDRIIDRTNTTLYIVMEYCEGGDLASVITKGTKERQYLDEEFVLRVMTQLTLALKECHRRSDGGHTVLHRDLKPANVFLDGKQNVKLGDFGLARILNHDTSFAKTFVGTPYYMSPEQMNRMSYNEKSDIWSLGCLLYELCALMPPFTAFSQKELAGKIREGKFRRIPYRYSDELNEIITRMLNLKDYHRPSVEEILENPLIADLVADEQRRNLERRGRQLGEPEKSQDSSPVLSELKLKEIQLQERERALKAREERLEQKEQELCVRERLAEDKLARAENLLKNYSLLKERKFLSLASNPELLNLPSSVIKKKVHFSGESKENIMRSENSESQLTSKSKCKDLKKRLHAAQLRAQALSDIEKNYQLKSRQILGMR
Protocol: as §1, §2

panel of 468 kinases [4] = target: T4, panel of 468 kinases (Homo sapiens, UniProt P53778); conditions: p38-gamma; 1 μM; read-out: % control
T4 construct: purchased KINOMEscan (ScanMAX) service
T4 sequence (P53778 1-367): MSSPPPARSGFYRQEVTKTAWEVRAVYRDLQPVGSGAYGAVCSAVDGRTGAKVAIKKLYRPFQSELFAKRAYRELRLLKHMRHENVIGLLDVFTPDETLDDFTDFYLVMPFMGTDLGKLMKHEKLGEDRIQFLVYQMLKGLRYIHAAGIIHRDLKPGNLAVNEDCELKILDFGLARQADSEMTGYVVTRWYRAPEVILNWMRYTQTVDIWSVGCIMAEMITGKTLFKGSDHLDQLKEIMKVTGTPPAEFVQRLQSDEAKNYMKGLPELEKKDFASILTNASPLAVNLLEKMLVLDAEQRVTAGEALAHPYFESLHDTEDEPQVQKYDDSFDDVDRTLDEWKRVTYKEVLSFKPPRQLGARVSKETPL
Protocol: as §1, §2

panel of 468 kinases [5] = target: T5, panel of 468 kinases (Homo sapiens, UniProt P54762); conditions: EPHB1; 1 μM; read-out: % control
T5 construct: purchased KINOMEscan (ScanMAX) service
T5 sequence (P54762 18-984): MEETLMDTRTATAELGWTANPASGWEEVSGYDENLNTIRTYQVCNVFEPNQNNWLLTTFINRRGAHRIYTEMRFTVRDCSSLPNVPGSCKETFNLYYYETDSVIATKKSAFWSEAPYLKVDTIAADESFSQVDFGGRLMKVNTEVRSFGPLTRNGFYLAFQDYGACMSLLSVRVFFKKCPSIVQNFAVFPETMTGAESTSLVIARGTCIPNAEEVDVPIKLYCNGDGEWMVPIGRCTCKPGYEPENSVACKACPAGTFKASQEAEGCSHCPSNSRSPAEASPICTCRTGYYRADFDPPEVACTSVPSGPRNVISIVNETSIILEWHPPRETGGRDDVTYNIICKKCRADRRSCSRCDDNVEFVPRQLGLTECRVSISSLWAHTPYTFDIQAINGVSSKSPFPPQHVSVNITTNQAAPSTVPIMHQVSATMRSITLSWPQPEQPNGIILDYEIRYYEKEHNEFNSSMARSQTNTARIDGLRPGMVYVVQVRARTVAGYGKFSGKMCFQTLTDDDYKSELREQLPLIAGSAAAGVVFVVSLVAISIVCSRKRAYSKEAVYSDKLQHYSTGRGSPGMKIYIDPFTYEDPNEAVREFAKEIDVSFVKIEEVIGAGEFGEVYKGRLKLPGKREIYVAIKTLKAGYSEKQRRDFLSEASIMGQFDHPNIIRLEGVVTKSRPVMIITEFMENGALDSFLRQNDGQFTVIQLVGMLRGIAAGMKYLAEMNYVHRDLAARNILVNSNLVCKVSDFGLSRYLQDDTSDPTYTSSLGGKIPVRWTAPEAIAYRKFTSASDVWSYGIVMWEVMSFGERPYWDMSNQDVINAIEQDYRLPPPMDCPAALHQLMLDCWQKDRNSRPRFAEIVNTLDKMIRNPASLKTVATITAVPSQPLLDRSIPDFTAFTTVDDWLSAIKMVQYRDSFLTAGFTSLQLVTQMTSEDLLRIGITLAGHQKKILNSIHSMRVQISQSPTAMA
Protocol: as §1, §2

T1 sequence (P09619 33-1106): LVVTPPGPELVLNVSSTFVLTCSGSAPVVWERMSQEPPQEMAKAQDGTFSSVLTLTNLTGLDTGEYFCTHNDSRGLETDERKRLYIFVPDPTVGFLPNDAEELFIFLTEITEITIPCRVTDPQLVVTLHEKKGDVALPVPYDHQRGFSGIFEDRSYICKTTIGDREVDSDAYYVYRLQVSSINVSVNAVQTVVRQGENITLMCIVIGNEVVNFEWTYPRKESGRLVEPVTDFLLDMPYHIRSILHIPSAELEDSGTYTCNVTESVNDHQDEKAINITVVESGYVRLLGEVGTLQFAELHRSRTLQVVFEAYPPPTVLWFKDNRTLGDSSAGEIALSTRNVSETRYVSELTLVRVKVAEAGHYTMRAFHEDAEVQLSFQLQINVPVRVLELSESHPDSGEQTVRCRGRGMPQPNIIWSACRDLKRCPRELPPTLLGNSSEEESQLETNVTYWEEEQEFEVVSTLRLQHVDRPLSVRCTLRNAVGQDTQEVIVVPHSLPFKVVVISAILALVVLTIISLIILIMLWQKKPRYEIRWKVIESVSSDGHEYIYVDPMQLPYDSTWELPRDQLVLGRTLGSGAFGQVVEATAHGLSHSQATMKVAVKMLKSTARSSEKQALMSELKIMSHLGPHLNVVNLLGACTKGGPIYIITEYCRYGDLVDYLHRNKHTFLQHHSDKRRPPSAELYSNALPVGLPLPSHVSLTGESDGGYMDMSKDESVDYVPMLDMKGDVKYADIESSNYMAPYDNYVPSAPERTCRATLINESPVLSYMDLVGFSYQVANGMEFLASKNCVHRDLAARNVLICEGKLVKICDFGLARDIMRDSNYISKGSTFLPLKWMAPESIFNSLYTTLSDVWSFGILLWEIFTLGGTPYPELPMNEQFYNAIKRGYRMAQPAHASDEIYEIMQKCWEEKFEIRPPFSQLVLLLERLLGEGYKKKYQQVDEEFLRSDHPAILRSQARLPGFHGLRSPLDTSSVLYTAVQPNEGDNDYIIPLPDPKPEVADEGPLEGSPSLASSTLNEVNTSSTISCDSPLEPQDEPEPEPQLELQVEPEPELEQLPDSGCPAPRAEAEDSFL

Q: With `CNc1nc(Nc2ccc(S(=O)(=O)N3CCC(N4CCOCC4)CC3)cc2OC)nc2[nH]cc(Cl)c12` [Compound 12, 5-chloro-N2-(2-methoxy-4-((4-morpholinopiperidin-1-yl)sulfonyl)phenyl)-N4-methyl-7H-pyrrolo[2,3-d]pyrimidine-2,4-diamine] as the compound, how does the remaining binding at 1 µM (panel of 468 kinases [1]) read?
A: Its remaining binding at 1 µM is 89%.

Q: And the remaining binding at 1 µM (panel of 468 kinases [2])?
A: Its remaining binding at 1 µM is 97%.

Q: What about the remaining binding at 1 µM (panel of 468 kinases [3]) of the same compound?
A: Its remaining binding at 1 µM is 100%.

Q: What about the remaining binding at 1 µM (panel of 468 kinases [4]) of the same compound?
A: Its remaining binding at 1 µM is 100%.

Q: And the remaining binding at 1 µM (panel of 468 kinases [5])?
A: The remaining binding at 1 µM was 88%.

Q: With `CNc1nc(Nc2ccc(C(=O)N3CCC(N4CCOCC4)CC3)c3c2OCO3)nc2[nH]cc(Cl)c12` [Compound 75, (7-((5-chloro-4-(methylamino)-7H-pyrrolo[2,3-d]pyrimidin-2-yl)amino)benzo[d][1,3]dioxol-4-yl)(4-morpholinopiperidin-1-yl)methanone] as the compound, how does the remaining binding at 1 µM (panel of 468 kinases [1]) read?
A: Its remaining binding at 1 µM is 56%.

Q: And the remaining binding at 1 µM (panel of 468 kinases [2])?
A: Its remaining binding at 1 µM is 97%.

Q: What about the remaining binding at 1 µM (panel of 468 kinases [3]) of the same compound?
A: Its remaining binding at 1 µM is 100%.

Q: What about the remaining binding at 1 µM (panel of 468 kinases [4]) of the same compound?
A: The remaining binding at 1 µM was 91%.

Q: What about the remaining binding at 1 µM (panel of 468 kinases [5]) of the same compound?
A: Its remaining binding at 1 µM is 100%.

Q: `CNc1nc(Nc2ccc(P3(=O)CCN(C4CCOCC4)CC3)cc2OC)nc2[nH]cc(Cl)c12` [Compound 77, 4-(4-((5-chloro-4-(methylamino)-7H-pyrrolo[2,3-d]pyrimidin-2-yl)amino)-3-methoxyphenyl)-1-(tetrahydro-2H-pyran-4-yl)-1,4-azaphosphinane 4-oxide] was tested. Which remaining binding at 1 µM (panel of 468 kinases [1]) did it give?
A: Its remaining binding at 1 µM is 100%.

Q: And the remaining binding at 1 µM (panel of 468 kinases [2])?
A: Its remaining binding at 1 µM is 99%.

Q: And the remaining binding at 1 µM (panel of 468 kinases [3])?
A: Its remaining binding at 1 µM is 100%.

Q: And the remaining binding at 1 µM (panel of 468 kinases [4])?
A: The remaining binding at 1 µM was 98%.

Q: And the remaining binding at 1 µM (panel of 468 kinases [5])?
A: The remaining binding at 1 µM was 100%.
